Data set [1] deals with patients admitted for overt HE. Kind of data set: Chart review of survival outcomes in patients admitted for overt HE. In kind it is in vivo, human. The settings on record: for Survival Rates, One Year / Survival Rates, Six Months / Survival Rates, Three Years: overt HE patients; for Survival Rates, One Year: one year after discharge; for Survival Rates, Six Months: six months after discharge, RFX 1200 then 1100 mg/day, LAC 30-120 cc/day; for Survival Rates, Three Years: three years after discharge. The source says:
The medical charts of outpatient and hospitalized patients admitted for overt HE were examined over a 137-month (about an 11.5-year) window. Information collected included gender, age, ethnicity, post discharge HE management protocol, HE hospitalization number (frequency) and time (days) to transplant or death. […] The lactulose dose (LAC) was 30-120 cc/day, adjusted to acquire two to three loose to soft bowel movements. Time from discharge to death or transplant was reported.
In the study, 185 patients were identified, 106 of which were males, 79 or which were females. The median age was 48.5 years (range: 28-72 years). The ethnic group breakdown was as follows: 66% Caucasian, 12% African American, 18% Hispanic, 4% Other. The mean MELD score was 18.5 points (range: 12-40).

For data set [2], the system named is patients admitted for overt HE. Kind of data set: Chart review of hospital readmission in cirrhotic patients with overt HE. In kind it is in vivo, human. The source says: The medical charts of outpatient and hospitalized patients admitted for overt HE were examined over a 137-month (about an 11.5-year) window. Information collected included gender, age, ethnicity, MELD score, post discharge HE management protocol, HE hospitalization number (frequency), time to readmission (days) and health insurance coverage. All patients suffering from infection, renal failure, gastrointestinal bleeding or […] were excluded. Group one consisted of patients discharged with lactulose (LAC) treatment. Group two consisted of patients discharged on rifaximin (RFX) treatment. Group three consisted of patients discharged on rifaximin treatment combined with lactulose treatment (RFX/LAC). […] The lactulose dose (LAC) was 30-120 cc/day, adjusted to acquire two to three loose to soft bowel movements. Time from discharge to readmission was measured. All patients were required to have a follow up visit after discharge and maintain family support and employment. Patients were broken down into compliant and non-compliant groups with outpatient follow-up. Eighty-seven (87) patients were identified as compliant, while forty-nine (49) patients were identified as non-compliant. In the compliant group, there were 51 males and 36 females, with an age range of between 32 and 68 years. The ethnic group breakdown for the compliant group was as follows: 66% Caucasian, 14% African American, 17% Hispanic and 3% other. The mean MELD score of the compliant group was 12.5 points (range: 8-17). In the non-compliant group, there were 29 males and 20 females, with an age range of between 28 and 66 years. The ethnic group breakdown for the non-compliant group was as follows: 64% Caucasian, 18% African American and 18% Hispanic. The mean MELD score of the non-compliant group was 11.5 points (range: 6-18).

Data set [3] relates to compensated cirrhotic patients with SHE. Kind of data set: Chart review of daily caloric intake in compensated cirrhotic patients with subclinical hepatic encephalopathy. Format: in vivo, human. The source says:
The medical charts were reviewed for non-hospitalized patients with compensated cirrhosis with and without the diagnosis of subclinical hepatic encephalopathy. […] All patients were reported to be at baseline Conn score Grade 0-1 HE, and employment status was identified. Information collected included; gender, age, ethnicity, weight/height, exercise and employment status, and daily calorie counts for 14 days. Daily caloric intake was registered with food consumption logs by patients and family. Normal caloric intake was considered at 1600 to 2200 calories/day depending upon dietary requirements. The daily caloric totals were conducted with the Calorie Smart calculator. […] There were 64 patients involved in the study: 29 females, 35 males, age (range 19-68), ethnicity (81% Caucasian, 8% African American, 8% Hispanic, 3% other), and mean MELD 8.5 points (range 6-13). There were no events of occult HE or hospitalizations throughout the review.

Data set [4] relates to species of Staphylococcus, Streptococcus, Enterococcus, and Enterobacteriaceae. The conditions noted are these: in vitro data; cited from earlier work.
The mark [5] stands for this setting: relative to lactulose monotherapy or combined therapy.

For the compound `OC[C@H]1O[C@@H](O[C@@H]2[C@@H](CO)OC(O)(CO)[C@H]2O)[C@H](O)[C@@H](O)[C@H]1O` (mixture of isomers) [LAC, Lactulose], in data set [1], the “Survival Rates, One Year” value came out at 46%; the “Survival Rates, Six Months” value is reported as 60%; the “Survival Rates, Three Years” value worked out at 29%. Further, the “number of hospital readmissions” value in data set [2] (compliant and non-compliant populations, comparison of LAC, RFX, RFX/LAC groups) was “highest”. Further, in data set [3], the adverse effect result was “bowel bloating culminating in a sensation of decreased appetite” and the “caloric intake (in words)” value is recorded as “marked decrease”.

Regarding `CO[C@H]1/C=C/O[C@@]2(C)Oc3c(C)c(O)c4c(O)c(c5c(nc6cc(C)ccn65)c4c3C2=O)NC(=O)/C(C)=C\C=C\[C@H](C)[C@H](O)[C@@H](C)[C@@H](O)[C@@H](C)[C@H](OC(C)=O)[C@@H]1C` [RFX, Rifaximin], in data set [1] (addition of rifaximin, alone or in combination with lactulose, overt HE), the “short- and long-term survival” value is “improvement”. In data set [1], the “Survival Rates, One Year” value was 63%; the “Survival Rates, Six Months” value turned out to be 76%; the “Survival Rates, Three Years” value stood at 51%. Besides, in data set [2] (setting [5]), the frequency of hospitalizations entry is recorded as “less frequent” and the “time to hospital readmission” value was “greater”. In data set [3], the “caloric intake (in words)” value is given as “appeared to maintain daily caloric intake”. Moreover, the “in vitro antibacterial activity” value in data set [4] is listed as “active”.

Source of the values: US20150164867A1, “METHODS OF IMPROVING LONG-TERM SURVIVAL AND REDUCING HOSPITALIZATION READMISSION RATES FOR SUBJECTS SUFFERING FROM HEPATIC ENCEPHALOPATHY” (Salix Pharmaceuticals, Ltd, priority 2012, published 2015).
